{
  "source": "patent EP1399019B1",
  "about": "“ADJUVANT COMPOSITIONS AND PESTICIDES” (HUNTSMAN PETROCHEMICAL CORPORATION, priority 2001, dated 2002)",
  "origin": "cited, not measured here",
  "note": "Where two headings read alike, the source gives them in different places.",
  "data": [
    {"molecule": "CNC(=O)CSP(=S)(OC)OC", "note": "[Cygon, dimethoate]", "values": [
      {"measurement": "time to lose 50 percent of its pest control power", "setting": "mixed in water of pH 9", "value": 48, "unit": "min"},
      {"measurement": "time to lose 50 percent of its pest control power", "setting": "pH of 6", "value": 720, "unit": "min"}
    ]}
  ]
}
